We go through 16 molecules from US4599362A, “2-aryl-ethyl ether derivatives and insecticidal and acaricidal agents containing said derivatives” (priority 1980, dated 1986).

Data set [1] concerns Second-instar and fifth-instar larvae of tobacco cutworm. The experiment in a line: Test 2: Tobacco Cutworm Larva Dipping Test. In kind it is in vivo. The protocol: (§1) To a mixture of 20 parts of the compound of the present invention and 20 parts of Sorpol SM-200 (registered trademark for the product supplied by Toho Chemical Industrial Co., Ltd.) was added 60 parts of xylol, and the mixture was sufficiently blended. The obtained emulsifiable concentrate was diluted at a predetermined concentration with distilled water, and the obtained dilution was used.
A dilution having a chemical concentration of 100 or 20 ppm was prepared in the same manner as described in Test 1.
Second-instar and fifth-instar larvae of tobacco cutworm were dipped in the dilution for 5 seconds, and the excessive dilution was removed by a filter paper. Then, the larvae were set free in a plastic cup and an artificial diet was supplied thereto. The cup was allowed to stand still in a thermostat chamber maintained at 25° C. After 24 hours, the numbers of the killed and living larvae were counted and the mortality was calculated. The test was made on three cups and the result was expressed by an average value.

For data set [2], the system named is third-instar larvae of diamond back moth. The experiment in a line: Test 4: Effect on Diamond Back Moth. It counts as in vivo. To be noted: Plutella xylostella, 24 hours. The protocol: as §1
Cabbage leaves were spread in a plastic cup, and 10 third-instar larvae of diamond back moth were set free in the cup.
A chemical dilution having a concentration of 100 or 20 ppm, prepared in the same manner as described in Test 1, was applied from an applicator at a rate of 3 ml per cup.
After scattering of the chemical dilution, the cup was covered, and after 24 hours, the numbers of killed and living larvae were counted and the mortality was calculated. The test was made on three cups and the average value was calculated.

A further data set deals with two-spotted spider mite. Briefly: Test 6: Effect on Two-Spotted Spider mite adults. In kind it is in vivo. The note with it: Tetranychus urticae; 500 ppm; adults; 24 hours; read-out: Mortality (%). The protocol: as §1
A kidney bean leaf disc perforated with a cork borer (15 mm in diameter) was placed on water-impreganated absorbent cotton (2 cm×2 cm), and 10 adults of two-spotted spider mite were set free. A chemical dilution having a concentration of 500 ppm was applied with an applicator in an amount of 3 ml.
The leaf disc-placed absorbent cotton was placed in a thermostat chamber maintained at 25° C. After 24 hours, the number of killed adults was counted and the mortality was calculated. The test was made on three leaf discs and the average value was calculated.

Data set [3] deals with resistant green rice leafhopper (collected at Nakagawara). Briefly: Test 3: Effect on Resistant Green Rice Leafhopper. It counts as in vivo, Nephotettix cincticeps Uhler. The note with it: Nephotettix cincticeps, 24 h, read-out: Mortality (%) Green Rice Leafhopper Collected at Nakagawara. The protocol: as §1
(§2) Seedlings (having 2 to 3 leaves) of paddy rice were hydroponically cultured in a pot having a diameter of 5 cm. A chemical dilution having a concentration of 100 or 20 ppm, prepared in the same manner as described in Test 1, was applied with a sprayer at a rate of 3 ml per pot. The treated seedlings were air-dried and covered with a metal net cylinder, and female adults of resistant green rice leafhopper (collected at Nakagawara) and sensitive green rice leafhopper (collected at Chigasaki) were set, respectively, free in the pot at a density of 10 adults per pot. After of 24 hours, the numbers of killed and living adults were counted and the mortality was calculated. The test was made on three pots and the average value was calculated.

The test system of data set [4] is sensitive green rice leafhopper (collected at Chigasaki). Briefly: Test 3: Effect on Sensitive Green Rice Leafhopper. It counts as in vivo. To be noted: Nephotettix cincticeps, female adults, 24 hours. The protocol:
as §1, §2

The test system of the next data set is German cockroach. Briefly: Test 7: Effect on German Cockroach. It counts as in vivo. To be noted: Blattella germanica, male adults, 24 hours, agonized and killed; for mortality at 10 mg/m2: 10 mg/m^2; for mortality at 50 mg/m2: 50 mg/m^2. The protocol: The bottom face of a high Petri dish having a diameter of 9 cm and a height of 9 cm was treated with 50 or 10 mg/m^2 of a test compound and the dish was air-dried. In order to prevent the adults from escaping from the dish, the inner wall of the dish was treated with butter. Then, 10 male adults of German cockroach were set free in each dish, and the dish was placed in a thermostat chamber maintained at 25° C. After 24 hours, the number of agonized and killed adults was counted. The test was made on two dishes and the average value was calculated.

The nature of data set [5]: Test 9: Toxicity Test (acute oral, mice). To be noted: mouse, in vivo, po. The protocol: In the fish toxicity test, the test compound was dissolved in acetone to form a 1% solution, and a predetermined amount of the solution was used. In the mouse toxicity test, the test compound of the present invention was dissolved or suspended in corn oil, and a predetermined amount of the solution or suspension was used.
A predetermined amount of a solution or suspension of a test compound in corn oil was orally administered to male mice having a body weight of 19 to 23 g (0.2 ml per 10 g of the body weight). After 7 days, the number of killed mice was counted and the influences on the mice were examined.

A further data set deals with green peach aphids. Briefly: Test 5: Effect on green peach Aphid. It counts as in vivo. To be noted: Myzus persicae, 24 hours, mortality class, read-out: Insecticidal Activity. The protocol:
as §1
Seedlings (having 3 to 4 leaves) of an eggplant grown on a pot were inoculated with green peach aphids and the insects were allowed to grow. The number of the insects was counted. A chemical dilution having a concentration of 100 ppm, prepared in the same manner as described in Test 1, was applied with a spray gun at a rate of 10 ml per pot. Then, the pot was placed in a glass green house. After 24 hours, the number of living insects was counted and the mortality was calculated.
The test was made on three pots, and the average value was calculated. In Table 6, mark "A" indicates a mortality higher than 95%, mark "B" indicates a mortality of 80 to 95%, mark "C" indicates a mortality of 50 to 80%, and mark "D" indicates a mortality lower than 50%.

Setting [6] is: 20 ppm, second-instar larvae, 24 hours, read-out: Mortality (%) Second-Instar Larvae.
Where [7] appears, read: 100 ppm, second-instar larvae, 24 hours, read-out: Mortality (%) Second-Instar Larvae.
Setting [8] is: topical, 24 h, read-out: Mortality (%) Fifth-Instar Larvae.

Where two headings read alike, the source gives them in different places.

As for `CC(C)(COCc1ccc(F)c(Oc2ccccc2)c1)c1ccc(F)cc1` [Compound 29, 3-Phenoxy-4-fluorobenzyl 2-(4-fluorophenyl)-2-methylpropyl ether], the mortality at 20 ppm in data set [1] (setting [6]), in data set [1] (setting [8]), in data set [2], in data set [3] and in data set [4] was 100% throughout. The mortality at 100 ppm in data set [1] (setting [7]), in data set [1] (setting [8]), in data set [2], in data set [3] and in data set [4] was 100% each time. Further, the mortality at 500 ppm with two-spotted spider mite was 100%. In the data set on German cockroach, the mortality at 10 mg/m2 turned out to be 100%. The mortality at 50 mg/m2 in the data set with German cockroach came out at 100%. In data set [5], this molecule came in with an LD50 at 168 h above 500 mg/kg.
Take `CC(C)COc1ccc(C(C)(C)COCc2ccc(F)c(Oc3ccccc3)c2)cc1` [Compound 45]: the mortality at 20 ppm was 80% in data set [2], 100% in data set [3] and 100% in data set [4]. Besides, the mortality at 100 ppm in data set [2] was 100%; in data set [3] it was 100%; in data set [4], 100%; with green peach aphids it was above 95%. For the same molecule, in the data set with German cockroach, the mortality at 10 mg/m2 stood at 90%. In the data set on German cockroach, this molecule gave a mortality at 50 mg/m2 of 100%.
As to `CCOc1ccc(C(C)(C)COCc2ccc(F)c(Oc3ccccc3)c2)cc1Cl` [Compound 59], the mortality at 20 ppm in data set [1] (setting [6]), in data set [1] (setting [8]), in data set [2], in data set [3] and in data set [4] was 100% each time. In addition, the mortality at 100 ppm in data set [1] (setting [7]), in data set [1] (setting [8]), in data set [2], in data set [3] and in data set [4] was 100% throughout. The molecule further showed a mortality at 10 mg/m2 in the data set with German cockroach of 100%. In the data set on German cockroach, this molecule displayed a mortality at 50 mg/m2 of 100%. Moreover, in data set [5], the LD50 at 168 h is above 500 mg/kg.
For `CCOc1ccc(C(C)(C)COCc2ccc(F)c(Oc3ccccc3)c2)cc1OC` [Compound 64], in the data set with two-spotted spider mite, the mortality at 500 ppm was found to be 100%. In data set [3], the mortality at 20 ppm was found to be 100% and the mortality at 100 ppm was 100%. In data set [4], the mortality at 20 ppm was determined as 100% and the mortality at 100 ppm was determined as 100%. In the data set on German cockroach, this molecule came in with a mortality at 10 mg/m2 of 100% and a mortality at 50 mg/m2 of 100%. For the same molecule, the mortality at 100 ppm with green peach aphids is above 95%.
Regarding `CC(C)C(C)(COCc1ccc(F)c(Oc2ccccc2)c1)c1ccc(Cl)cc1` (stereo not drawn) [Compound 25, 3-phenoxy-4-fluorobenzyl 2-(4-chlorophenyl)-2,3-dimethylbutyl ether], in the data set with green peach aphids, the mortality at 100 ppm lay within 80 to 95%.
As to `CCOc1ccc(C(C)COCc2ccc(F)c(Oc3ccccc3)c2)cc1` (stereo not drawn) [Compound 43], in data set [3], the mortality at 20 ppm turned out to be 100% and the mortality at 100 ppm worked out at 100%. Moreover, in data set [4], the mortality at 20 ppm came to 100% and the mortality at 100 ppm was found to be 100%. In the data set on German cockroach, this molecule came in with a mortality at 10 mg/m2 of 100% and a mortality at 50 mg/m2 of 100%. The mortality at 100 ppm in the data set on green peach aphids is above 95%.
For the molecule `CC(C)C(COCc1ccc(F)c(Oc2ccccc2)c1)c1ccc(Cl)cc1` (stereo not drawn) [Compound 8, 3-Phenoxy-4-fluorobenzyl 2-(4-chlorophenyl)-3-methylbutyl ether], in data set [3], the mortality at 20 ppm worked out at 100% and the mortality at 100 ppm turned out to be 100%. In addition, in data set [4], the mortality at 20 ppm was found to be 100% and the mortality at 100 ppm came out at 100%. The LD50 at 168 h in data set [5] was above 500 mg/kg.
Consider `COc1ccc(C(C)(C)COCc2ccc(F)c(Oc3ccccc3)c2)cc1OC` [Compound 56], for which the mortality at 500 ppm with two-spotted spider mite was 100%. This molecule also displayed an LD50 at 168 h in data set [5] above 500 mg/kg.
For the molecule `COc1ccc(Oc2cc(COCC(C)(C)c3ccc(Cl)cc3)ccc2F)cc1` [Compound 13, 3-(4-Methoxyphenoxy)-4-fluorobenzyl 2-(4-chlorophenyl)-2-methylpropyl ether], in data set [3], the mortality at 20 ppm was found to be 70% and the mortality at 100 ppm came to 100%. In data set [4], this molecule showed a mortality at 20 ppm of 50% and a mortality at 100 ppm of 100%. The LD50 at 168 h in data set [5] was above 500 mg/kg.
In the case of `CC(C)(COCc1cc(Oc2ccccc2)ccc1F)c1ccc(Cl)cc1` [Compound 32, 3-Phenoxy-6-fluorobenzyl 2-(4-chlorophenyl)-2-methylpropyl ether], the LD50 at 168 h in data set [5] is above 500 mg/kg.
`Cc1ccc2cc(C(C)(C)COCc3ccc(F)c(Oc4ccccc4)c3)ccc2c1` [Compound 44, 3-Phenoxy-4-fluorobenzyl 2-(6-methyl-2-naphthyl)-2-methylpropyl ether]: the mortality at 500 ppm in the data set with two-spotted spider mite stood at 95%. The mortality at 20 ppm in data set [3] and in data set [4] was 100% throughout. Further, the figures for the mortality at 100 ppm (in data set [3]; in data set [4]; in the data set with green peach aphids) were 100%, 100% and above 95%, respectively. In addition, the mortality at 10 mg/m2 with German cockroach is 100%. This molecule came in with a mortality at 50 mg/m2 in the data set on German cockroach of 100%.
`Cc1ccc(C(C)(C)COCc2cc(Cl)cc(Oc3ccccc3)c2)cc1` [Compound 37, 3-Phenoxy-5-chlorobenzyl 2-(4-methylphenyl)-2-methylpropyl ether] came in with a median lethal dose (LD50) at 168 h in data set [5] above 500 mg/kg.
Consider `CCOCCOc1ccc(C(C)(C)COCc2ccc(F)c(Oc3ccccc3)c2)cc1` [Compound 39], for which, in the data set with two-spotted spider mite, the mortality at 500 ppm was found to be 100%. The LD50 at 168 h in data set [5] is above 500 mg/kg.
`CC(C)(COCc1ccc(F)c(Oc2ccccc2)c1)c1ccc2ccccc2c1` [Compound 12, 3-Phenoxy-4-fluorobenzyl 2-(naphthalene-2-yl)-2-methylpropyl ether]: in data set [3], the mortality at 20 ppm was found to be 95% and the mortality at 100 ppm came to 100%. Besides, in data set [4], the mortality at 20 ppm turned out to be 80% and the mortality at 100 ppm was 100%. Further, in data set [5], the LD50 at 168 h was above 500 mg/kg.
As for `CCC(CC)(COCc1ccc(F)c(Oc2ccccc2)c1)c1ccc(Cl)cc1` [Compound 35, 3-Phenoxy-4-fluorobenzyl 2-(4-chlorophenyl)-2-ethylbutyl ether], in data set [3], the mortality at 20 ppm stood at 100% and the mortality at 100 ppm stood at 100%. Moreover, in data set [4], the mortality at 20 ppm came to 90% and the mortality at 100 ppm was 100%. The LD50 at 168 h in data set [5] was above 500 mg/kg.
Regarding `CCC(COCc1ccc(F)c(Oc2cccc(Cl)c2)c1)c1ccc(Cl)cc1` (stereo not drawn) [Compound 34, 3-(3-Chlorophenoxy)-4-fluorobenzyl 2-(4-chlorophenyl)-butyl ether], the mortality at 100 ppm in the data set on green peach aphids was in the range of 80 to 95%.

By LD50 is commonly meant the dose expected to kill half of the subjects tested. Higher therefore signals lower toxicity.
